Experimental data as given in patent US9931327B2, “Derivatives of 1-phenyl-2-pyridinyl alkyl alcohols as phosphodiesterase inhibitors” (Chiesi Farmaceutici S.p.A., priority 2011, dated 2018).
Counter-ions that a name gives are not always drawn. Like-named read-outs stand apart in the source and are kept apart here.

Test system: LPS-induced TNF-α release in peripheral blood mononuclear cells (PBMCs)
Experiment: In vitro determination of PDE4 inhibitory activity in the PBMCs assay (LPS-induced TNF-α release)
Format: cell-based, human
Conditions: PBMC, human PBMCs, LPS 3 ng/ml, 18 hours, read-out: PDE4 inhibition (IC50, 50% inhibition of LPS-induced TNF-α release)
Procedure: The assay, which is based on the known inhibitory activity exerted by PDE4 inhibitors on the lipopolyshaccarides (LPS)-induced tumour necrosis factor-alpha (TNF-α release in peripheral blood mononuclear cells (PBMCs), was performed according to a method previously described (Hatzelmann A et al., J. Pharmacol. Exp. Ther., 2001; 297:267-279; and Draheim R et al., J. Pharmacol. Exp. Ther., 2004; 308:555-563, which are incorporated herein by reference in their entireties). Cryopreserved human PBMCs, (100 l/well) were incubated in 96-well plates (10^5 cells/well), for 30 minutes, in the presence or absence (50 microl) of the test compounds whose concentrations ranged from 10^−12 M to 10^−6 M or from […] to 10^−7 M. Subsequently, LPS (3 ng/ml) was added.
After 18 hours of incubation at 37° C. in a humidified incubator under an atmosphere of 95% air and 5% CO2, culture medium was collected and TNF-α measured by ELISA. The results of the tested compounds, representatives of the invention, expressed as mean±95% confidence limits of the molar concentration of the test compound producing 50% inhibition of LPS-induced TNF-α release (IC50) are shown in the following Table: […]

Row | Compound | IC50 (TNF-α by ELISA) | IC50 (compounds of formula (II))
1 | O=C(O[C@@H](Cc1c(Cl)c[n+]([O-])cc1Cl)c1ccc(OC(F)F)c(OCC2CC2)c1)[C@@H]1SCCN1C(=O)c1ccc(CN2CCS(=O)(=O)CC2)cc1 [Compound 40, 3,5-dichloro-4-((S)-2-(3-(cyclopropylmethoxy)-4-(difluoromethoxy)phenyl)-2-((S)-3-(4-(1,1-dioxothiomorpholinomethyl)benzoyl)thiazolidine-2-carbonyloxy)ethyl)pyridine 1-oxide] | 0.1 to 1 nM | 
2 | Nc1ccc(C(=O)N2CCSC2C(=O)O[C@@H](Cc2c(Cl)c[n+]([O-])cc2Cl)c2ccc(OC(F)F)c(OCC3CC3)c2)cc1 (stereo partly drawn) [Compound 26, 4-((2S)-2-(3-(4-aminobenzoyl)thiazolidine-2-carbonyloxy)-2-(3-(cyclopropylmethoxy)-4-(difluoromethoxy)phenyl)ethyl)-3,5-dichloropyridine 1-oxide] | 0.1 to 1 nM | 
3 | O=C(O[C@@H](Cc1c(Cl)c[n+]([O-])cc1Cl)c1ccc(OC(F)F)c(OCC2CC2)c1)C1SCCN1C(=O)c1cnco1 (stereo partly drawn) [Compound 35, 3,5-dichloro-4-((2S)-2-(3-(cyclopropylmethoxy)-4-(difluoromethoxy)phenyl)-2-(3-(oxazole-5-carbonyl)thiazolidine-2-carbonyloxy)ethyl)pyridine 1-oxide] | < 0.1 nM | 
4 | O=C(O[C@@H](Cc1c(Cl)c[n+]([O-])cc1Cl)c1ccc(OC(F)F)c(OCC2CC2)c1)[C@@H]1SCCN1S(=O)(=O)c1ccco1 [Compound 95, 3,5-dichloro-4-((S)-2-(3-(cyclopropylmethoxy)-4-(difluoromethoxy)phenyl)-2-((S)-3-(furan-2-ylsulfonyl)thiazolidine-2-carbonyloxy)ethyl)pyridine 1-oxide] | < 0.1 nM | 
5 | Cn1ccnc1S(=O)(=O)N1CCSC1C(=O)O[C@@H](Cc1c(Cl)c[n+]([O-])cc1Cl)c1ccc(OC(F)F)c(OCC2CC2)c1 (stereo partly drawn) [Compound 64, 3,5-dichloro-4-((2S)-2-(3-(cyclopropylmethoxy)-4-(difluoromethoxy)phenyl)-2-(3-(1-methyl-1H-imidazol-2-ylsulfonyl)thiazolidine-2-carbonyloxy)ethyl)pyridine 1-oxide] | < 0.1 nM | 
6 | Cn1ccnc1S(=O)(=O)N1CCCC[C@H]1C(=O)O[C@@H](Cc1c(Cl)c[n+]([O-])cc1Cl)c1ccc(OC(F)F)c(OCC2CC2)c1 [Compound 116, 3,5-dichloro-4-((S)-2-(3-(cyclopropylmethoxy)-4-(difluoromethoxy)phenyl)-2-((S)-1-(1-methyl-1H-imidazol-2-ylsulfonyl)piperidine-2-carbonyloxy)ethyl)pyridine 1-oxide] | < 0.1 nM | 
7 | COc1ccc(S(=O)(=O)N2CCC[C@H]2C(=O)O[C@@H](Cc2c(Cl)c[n+]([O-])cc2Cl)c2ccc(OC(F)F)c(OCC3CC3)c2)cc1OC [Compound 53, 3,5-dichloro-4-((S)-2-(3-(cyclopropylmethoxy)-4-(difluoromethoxy)phenyl)-2-((S)-1-(3,4-dimethoxyphenylsulfonyl)pyrrolidine-2-carbonyloxy)ethyl)pyridine 1-oxide] | 0.1 to 1 nM | 
8 | O=C(O[C@@H](Cc1c(Cl)c[n+]([O-])cc1Cl)c1ccc(OC(F)F)c(OCC2CC2)c1)[C@H]1CCCCN1 [Compound 9] |  | 1 to 10 nM
9 | NS(=O)(=O)c1cccc(S(=O)(=O)N2CCS[C@H]2C(=O)O[C@@H](Cc2c(Cl)c[n+]([O-])cc2Cl)c2ccc(OC(F)F)c(OCC3CC3)c2)c1 [Compound 91, 3,5-dichloro-4-((S)-2-(3-(cyclopropylmethoxy)-4-(difluoromethoxy)phenyl)-2-((S)-3-(3-sulfamoylphenylsulfonyl)thiazolidine-2-carbonyloxy)ethyl)pyridine 1-oxide] | < 0.1 nM | 
10 | CN(C)Cc1ccc(C(=O)N2CCSC2C(=O)O[C@@H](Cc2c(Cl)c[n+]([O-])cc2Cl)c2ccc(OC(F)F)c(OCC3CC3)c2)s1 (stereo partly drawn) [Compound 51, 3,5-dichloro-4-((2S)-2-(3-(cyclopropylmethoxy)-4-(difluoromethoxy)phenyl)-2-(3-(5-((dimethylamino)methyl)thiophene-2-carbonyl)thiazolidine-2-carbonyloxy)ethyl)pyridine 1-oxide formate] | 0.1 to 1 nM | 
11 | O=C(O)c1cccc(S(=O)(=O)N2CCSC2C(=O)O[C@@H](Cc2c(Cl)c[n+]([O-])cc2Cl)c2ccc(OC(F)F)c(OCC3CC3)c2)c1 (single isomer, unassigned) [Compound 75, 4-((S)-2-((S)-3-(3-carboxyphenylsulfonyl)thiazolidine-2-carbonyloxy)-2-(3-(cyclopropylmethoxy)-4-(difluoromethoxy)phenyl)ethyl)-3,5-dichloropyridine 1-oxide or 4-((S)-2-((R)-3-(3-carboxyphenylsulfonyl)thiazolidine-2-carbonyloxy)-2-(3-(cyclopropylmethoxy)-4-(difluoromethoxy)phenyl)ethyl)-3,5-dichloropyridine 1-oxide] | 0.1 to 1 nM | 
12 | N#Cc1cc(S(=O)(=O)N2CCS[C@H]2C(=O)O[C@@H](Cc2c(Cl)c[n+]([O-])cc2Cl)c2ccc(OC(F)F)c(OCC3CC3)c2)ccc1F [Compound 209, 3,5-dichloro-4-((S)-2-((S)-3-(3-cyano-4-fluorophenylsulfonyl)thiazolidine-2-carbonyloxy)-2-(3-(cyclopropylmethoxy)-4-(difluoromethoxy)phenyl)ethyl)pyridine 1-oxide] | 0.1 to 1 nM | 
13 | CS(=O)(=O)Nc1ccc(S(=O)(=O)N2CCSC2C(=O)O[C@@H](Cc2c(Cl)c[n+]([O-])cc2Cl)c2ccc(OC(F)F)c(OCC3CC3)c2)cc1 (stereo partly drawn) [Compound 142, 3,5-dichloro-4-((2S)-2-(3-(cyclopropylmethoxy)-4-(difluoromethoxy)phenyl)-2-(3-(4-(methylsulfonamido)phenylsulfonyl)thiazolidine-2-carbonyloxy)ethyl)pyridine 1-oxide] | 0.1 to 1 nM | 
14 | Cc1nc(C)c(S(=O)(=O)N2CCS[C@H]2C(=O)O[C@@H](Cc2c(Cl)c[n+]([O-])cc2Cl)c2ccc(OC(F)F)c(OCC3CC3)c2)s1 [Compound 107, 3,5-dichloro-4-((S)-2-(3-(cyclopropylmethoxy)-4-(difluoromethoxy)phenyl)-2-((S)-3-(2,4-dimethylthiazol-5-ylsulfonyl)thiazolidine-2-carbonyloxy)ethyl)pyridine 1-oxide] | < 0.1 nM | 
15 | O=C(O[C@@H](Cc1c(Cl)c[n+]([O-])cc1Cl)c1ccc(OC(F)F)c(OCC2CC2)c1)[C@H]1CCCN1S(=O)(=O)c1ccccc1 [Compound 244, 3,5-dichloro-4-((S)-2-(3-(cyclopropylmethoxy)-4-(difluoromethoxy)phenyl)-2-((R)-1-(phenylsulfonyl)pyrrolidine-2-carbonyloxy)ethyl)pyridine 1-oxide] | 1 to 10 nM | 
16 | Nc1cccc(S(=O)(=O)N2CCS[C@H]2C(=O)O[C@@H](Cc2c(Cl)c[n+]([O-])cc2Cl)c2ccc(OC(F)F)c(OCC3CC3)c2)c1 [Compound 140, 4-((S)-2-((S)-3-(3-aminophenylsulfonyl)thiazolidine-2-carbonyloxy)-2-(3-(cyclopropylmethoxy)-4-(difluoromethoxy)phenyl)ethyl)-3,5-dichloropyridine 1-oxide] | < 0.1 nM | 
17 | CN(C)C(=O)c1cccc(S(=O)(=O)N2CCC[C@@H](C(=O)O[C@@H](Cc3c(Cl)c[n+]([O-])cc3Cl)c3ccc(OC(F)F)c(OCC4CC4)c3)C2)c1 [Compound 228] | 0.1 to 1 nM | 
